Results: patent publication EP0878472A1, “Reactive radiation- or thermally- initiated cationically-curable epoxide monomers and compositions made from those monomers” (National Starch and Chemical Investment Holding Corporation, priority 1997, dated 1998)

Assays:
Assay type in all cases: physicochemical
[1] = Photo-DSC (P-DSC) UV cure of epoxide/diol adhesive compositions (Example 3)
Method: These compositions were compared to control formulations containing a cycloaliphatic epoxide obtained from Union Carbide, as product ERL-4221, which has the structure: [drawing 5]
A sample in the range of 1.5 to 3.0 mg for each composition was exposed to UV radiation and the rate of cure followed by a DPA-7 Perkin-Elmer Photo-Differential Scanning Calorimeter (P-DSC). Each sample was equilibrated to constant temperature (25 °C) on the Calorimeter for one minute and then exposed to irradiation for a total of four minutes using a 100 Watt Mercury short arc lamp. […] The diol used in the compositions, the molar ratio of epoxy to diol, and the DSC results are set out in Table 1 for the inventive styrene epoxy, and in Table 2 for the cycloaliphatic epoxy. In the Tables, Tmax is the time it took to reach the peak maximum exotherm in seconds, and ΔH is the exotherm of the reaction in kJoules per mole of epoxy, measured as the area over the cure from the four minute baseline back to the onset of exotherm.
The time the reaction takes to reach Tmax is a direct indication of the speed of the reaction; thus, the shorter the time (i.e. the sharper the peak), the faster the cure reaction for the epoxy, which is a desirable property for these adhesive compositions. In the following tables, the peak are designated either sharp or broad; for purposes herein, if more than half the exotherm occurred in the first 30 seconds, the peak was defined as sharp, and conversely, if less than half the exotherm occurred in the first 30 seconds, the peak was defined as broad.
The ΔH values are a direct indication of the degree of epoxy ring opening, with the more negative numbers reflecting the higher degree of conversion of the epoxy.

[2] = Photo-DSC analysis of various styrene oxides formulated with photoinitiator and diol (Example 6)
Method: A sample in the range of 1.5 to 3.0 mg for each composition was exposed to UV radiation and the rate of cure followed by a DPA-7 Perkin-Elmer Photo-Differential Scanning Calorimeter (P-DSC). Each sample was equilibrated to constant temperature (25 °C) on the Calorimeter for one minute and then exposed to irradiation for a total of four minutes using a 100 Watt Mercury short arc lamp. […] In the Tables, Tmax is the time it took to reach the peak maximum exotherm in seconds, and ΔH is the exotherm of the reaction in kJoules per mole of epoxy, measured as the area over the cure from the four minute baseline back to the onset of exotherm.
Photo-DSC of various styrene oxides was conducted by formulating the epoxides with a photoinitiator and a diol.

[3] = Storage stability of the epoxide at room temperature
Method: The epoxidation may be performed on the starting olefinic compound by any suitable method known in the art, but is preferably conducted through a potassium monopersulfate/acetone oxidation of the olefinic portion of the corresponding styrene. The styrene compound is suspended in a mixture of acetone and water, and buffered with sodium bicarbonate, which serves to prevent decomposition of the resultant oxides. This suspension is then treated with an excess of the oxidant, provided as an aqueous solution of the monopersulfate compound (2KHSO5.KHSO4.K2SO4,) (Oxone®, a product of DuPont). The recovered solution is partitioned with ethyl acetate, toluene, methylene chloride, or other suitable solvent. Workup consists of washing the organic layer with water followed by drying with a non-acidic drying agent (e.g., anhydrous […]). Filtering this mixture, followed by removal of organic solvent in vacuo, affords the desired epoxide in high yield without further purification. […]
A suspension of 1 equivalent of 1,3-diisopropenyl benzene (5mL, 0.925g/mL, 29.2mmol) and 6 equivalents of sodium bicarbonate (15.9g, 190mmol) in a 2 : 1 mixture (volume : volume) of acetone : water (total 450mL) was treated with an aqueous solution containing 2 equivalents of potassium persulfate (Oxone®) (36.5g, 59.3mmol). […] The pH was monitored during this time and remained neutral. […]

[4] = Stepanol PS-4002, Epoxy:Diol 1:1
[5] = Stepanol PS-4002, Epoxy:Diol 3:1

In the case of O=C(OCC1CCC2OC2C1)C1CCC2OC2C1 (stereo not drawn) [ERL-4221], the Tmax ([1]; MP-diol, Epoxy:Diol 1:1) is reported as 21.20 s, the ΔH ([1]; MP-diol, Epoxy:Diol 1:1) is reported as -78.4 kJ/mole epoxide and the Tmax ([1]; MP-diol, Epoxy:Diol 3:1) is reported as 6.39 s. It also gave a ΔH ([1]; MP-diol, Epoxy:Diol 3:1) of -49.0 kJ/mole epoxide, a Tmax ([1]; Rucoflex 107, Epoxy:Diol 1:1) of 6.81 s and a ΔH ([1]; Rucoflex 107, Epoxy:Diol 1:1) of -68.9 kJ/mole epoxide. It also gave a Tmax ([1]; Rucoflex 107, Epoxy:Diol 3:1) of 2.10 s, a ΔH ([1]; Rucoflex 107, Epoxy:Diol 3:1) of -42.9 kJ/mole epoxide and a Tmax [1, 4] of 17.10 s. For the same compound, the ΔH [1, 4] was -79.4 kJ/mole epoxide, the Tmax [1, 5] was 5.34 s and the ΔH [1, 5] was -14.3 kJ/mole epoxide. It also gave a Tmax ([1]; SynFac 8031, Epoxy:Diol 1:1) of 13.47 s, a ΔH ([1]; SynFac 8031, Epoxy:Diol 1:1) of -67.8 kJ/mole epoxide and a Tmax ([1]; SynFac 8031, Epoxy:Diol 3:1) of 13.17 s. For the same compound, the ΔH ([1]; SynFac 8031, Epoxy:Diol 3:1) was -39.7 kJ/mole epoxide, the Tmax ([1]; Tone 0201, Epoxy:Diol 1:1) was 9.21 s and the ΔH ([1]; Tone 0201, Epoxy:Diol 1:1) was -62.0 kJ/mole epoxide. The Tmax ([1]; Tone 0201, Epoxy:Diol 1:3) was 42.66 s, the ΔH ([1]; Tone 0201, Epoxy:Diol 1:3) was -44.0 kJ/mole epoxide and the Tmax ([1]; Tone 0201, Epoxy:Diol 3:1) was 6.00 s. The ΔH ([1]; Tone 0201, Epoxy:Diol 3:1) was -30.3 kJ/mole epoxide, the Tmax ([1]; no diol, 1% UVI-6974, 25 °C) was 4.62 s and the ΔH ([1]; no diol, 1% UVI-6974, 25 °C) was -10.0 kJ/mole epoxide. It also gave an extents of cure ([1]; range over all diols and ratios of Tables 1 and 2) of -79.4 to -10.0 kJ.
In the case of COc1cc(C2OC2C)ccc1OC(C)=O (stereo not drawn) [isoeugenol acetate epoxy, isoeugenol acetate epoxide], the ΔH ([2]; MP-diol, Epoxy:Diol 1:1) is reported as -70,1 kJ/Mole EPOXIDE, the ΔH ([2]; MP-diol, Epoxy:Diol 3:1) is reported as -67.6 kJ/Mole EPOXIDE and the ΔH ([2]; Tone polyol, Epoxy:Diol 1:1) is reported as -75.0 kJ/Mole EPOXIDE. It also gave a ΔH ([2]; Tone polyol, Epoxy:Diol 3:1) of -65.0 kJ/Mole EPOXIDE and a ΔH ([2]; no diol) of -15.7 kJ/Mole EPOXIDE.
For COCC1OC1c1ccccc1 (stereo not drawn) [cinnamyl methyl ether epoxy, cinnamyl methyl ether epoxide], the ΔH ([2]; MP-diol, Epoxy:Diol 1:1) was -57.8 kJ/Mole EPOXIDE, the ΔH ([2]; MP-diol, Epoxy:Diol 3:1) was -63.6 kJ/Mole EPOXIDE and the ΔH ([2]; Tone polyol, Epoxy:Diol 1:1) was -98,8 kJ/Mole EPOXIDE. For the same compound, the ΔH ([2]; Tone polyol, Epoxy:Diol 3:1) was -82,4 kJ/Mole EPOXIDE and the ΔH ([2]; no diol) was -43.9 kJ/Mole EPOXIDE.
In the case of divinylbenzene dioxide [Example 2], the “advancement of the epoxide” value ([3]; after one year at room temperature) is reported as “no advancement”.
For CC1(c2ccccc2)CO1 (stereo not drawn) [alpha methyl styrene epoxy], the ΔH ([2]; MP-diol, Epoxy:Diol 1:1) was -80.9 kJ/Mole EPOXIDE, the ΔH ([2]; MP-diol, Epoxy:Diol 3:1) was -56.4 kJ/Mole EPOXIDE and the ΔH ([2]; Tone polyol, Epoxy:Diol 1:1) was -76.5 kJ/Mole EPOXIDE. For the same compound, the ΔH ([2]; Tone polyol, Epoxy:Diol 3:1) was -66.7 kJ/Mole EPOXIDE and the ΔH ([2]; no diol) was -53.3 kJ/Mole EPOXIDE.
In the case of CC(=O)OCC1OC1c1ccccc1 (stereo not drawn) [cinnamyl acetate epoxy, cinnamyl acetate epoxide], the ΔH ([2]; MP-diol, Epoxy:Diol 1:1) is reported as -27.5 kJ/Mole EPOXIDE, the ΔH ([2]; MP-diol, Epoxy:Diol 3:1) is reported as -16.1 kJ/Mole EPOXIDE and the ΔH ([2]; Tone polyol, Epoxy:Diol 1:1) is reported as -55.6 kJ/Mole EPOXIDE. For the same compound, the ΔH ([2]; Tone polyol, Epoxy:Diol 3:1) was -30.8 kJ/Mole EPOXIDE and the ΔH ([2]; no diol) was 0 kJ/Mole EPOXIDE.
Compound “1,3-diisopropenylbenzene dioxide [Example 1]” has a Tmax ([1]; MP-diol, Epoxy:Diol 1:1) of 4.35 s, a ΔH ([1]; MP-diol, Epoxy:Diol 1:1) of -77.4 kJ/mole epoxide and a Tmax ([1]; MP-diol, Epoxy:Diol 3:1) of 2.94 s. The ΔH ([1]; MP-diol, Epoxy:Diol 3:1) was -58.2 kJ/mole epoxide, the Tmax ([1]; Rucoflex 107, Epoxy:Diol 1:1) was 4.32 s and the ΔH ([1]; Rucoflex 107, Epoxy:Diol 1:1) was -84.1 kJ/mole epoxide. It also gave a Tmax ([1]; Rucoflex 107, Epoxy:Diol 3:1) of 4.20 s, a ΔH ([1]; Rucoflex 107, Epoxy:Diol 3:1) of -79.1 kJ/mole epoxide and a Tmax [1, 4] of 6.12 s. It also gave a ΔH [1, 4] of -76.0 kJ/mole epoxide, a Tmax [1, 5] of 4.83 s and a ΔH [1, 5] of -62.6 kJ/mole epoxide. The Tmax ([1]; SynFac 8031, Epoxy:Diol 1:1) was 4.74 s, the ΔH ([1]; SynFac 8031, Epoxy:Diol 1:1) was -71.8 kJ/mole epoxide and the Tmax ([1]; SynFac 8031, Epoxy:Diol 3:1) was 3.57 s. For the same compound, the ΔH ([1]; SynFac 8031, Epoxy:Diol 3:1) was -65.5 kJ/mole epoxide, the Tmax ([1]; Tone 0201, Epoxy:Diol 1:1) was 3.57 s and the ΔH ([1]; Tone 0201, Epoxy:Diol 1:1) was -73.4 kJ/mole epoxide. It also gave a Tmax ([1]; Tone 0201, Epoxy:Diol 1:3) of 4.59 s, a ΔH ([1]; Tone 0201, Epoxy:Diol 1:3) of -75.9 kJ/mole epoxide and a Tmax ([1]; Tone 0201, Epoxy:Diol 3:1) of 3.96 s. For the same compound, the ΔH ([1]; Tone 0201, Epoxy:Diol 3:1) was -56.4 kJ/mole epoxide, the Tmax ([1]; no diol, 1% UVI-6974, 25 °C) was 3.84 s and the ΔH ([1]; no diol, 1% UVI-6974, 25 °C) was -57.8 kJ/mole epoxide. For the same compound, the “advancement of the epoxide” value ([3]; after 13 days at room temperature) was “no advancement”, the ΔH ([2]; Tone polyol, Epoxy:Diol 1:1) was -72.8 kJ/Mole EPOXIDE and the ΔH ([2]; no diol) was -57.8 kJ/Mole EPOXIDE.
Work on CC1OC1c1ccccc1 (stereo not drawn) [beta-methyl styrene epoxy, beta-methyl styrene mono-epoxide] yielded a ΔH ([2]; MP-diol, Epoxy:Diol 1:1) of -102.6 kJ/Mole EPOXIDE, a ΔH ([2]; MP-diol, Epoxy:Diol 3:1) of -75.7 kJ/Mole EPOXIDE and a ΔH ([2]; Tone polyol, Epoxy:Diol 1:1) of -80.5 kJ/Mole EPOXIDE. It also gave a ΔH ([2]; Tone polyol, Epoxy:Diol 3:1) of -54.5 kJ/Mole EPOXIDE and a ΔH ([2]; no diol) of -85.4 kJ/Mole EPOXIDE.
